Measured values: paper PMC6479541, “Target Proteins of Phloretin for Its Anti-Inflammatory and Antibacterial Activities Against Propionibacterium acnes-Induced Skin Infection” (Molecules, 2019)

What was measured:
[1] = molecular target: T1, P. acnes β-ketoacyl acyl carrier protein (ACP) synthase III (KAS III) (Cutibacterium acnes, UniProt P0DW99); type: biochemical
T1 construct: gene fabH; wild-type P. acnes KAS III
T1 sequence (P0DW99 1-332): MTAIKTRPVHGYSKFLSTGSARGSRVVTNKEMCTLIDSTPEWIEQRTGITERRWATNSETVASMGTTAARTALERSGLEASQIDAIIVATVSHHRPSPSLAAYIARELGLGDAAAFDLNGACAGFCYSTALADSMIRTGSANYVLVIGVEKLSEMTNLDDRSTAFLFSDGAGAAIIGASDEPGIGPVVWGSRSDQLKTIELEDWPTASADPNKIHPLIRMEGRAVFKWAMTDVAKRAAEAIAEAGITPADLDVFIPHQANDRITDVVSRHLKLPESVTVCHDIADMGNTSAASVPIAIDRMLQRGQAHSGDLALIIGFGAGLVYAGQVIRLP

JNK1 = molecular target: T2, JNK1 (Homo sapiens, UniProt P45983); assay: tryptophan fluorescence quenching titration with purified protein; type: binding
T2 construct: gene MAPK8; C-terminal truncated form of human JNK1α1 (residues 1–364), C-terminal 6His tag
T2 sequence (P45983 1-364): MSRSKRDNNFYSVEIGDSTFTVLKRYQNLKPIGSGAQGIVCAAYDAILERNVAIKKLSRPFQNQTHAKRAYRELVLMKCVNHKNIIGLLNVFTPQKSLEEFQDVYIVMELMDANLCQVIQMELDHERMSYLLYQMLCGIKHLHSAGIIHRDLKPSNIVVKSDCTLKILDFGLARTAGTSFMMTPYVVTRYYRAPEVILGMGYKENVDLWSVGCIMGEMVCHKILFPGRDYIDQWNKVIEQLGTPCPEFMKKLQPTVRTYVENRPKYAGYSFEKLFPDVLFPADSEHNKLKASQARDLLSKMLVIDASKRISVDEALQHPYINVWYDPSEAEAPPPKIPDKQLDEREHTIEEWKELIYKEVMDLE

`O=C(CCc1ccc(O)cc1)c1c(O)cc(O)cc1O` [Phloretin, 3-(4-hydroxyphenyl)-1-(2,4,6-trihydroxyphenyl)-1-propanone] was tested, and the “% reduction of product” value [1] was > 66 % reduction of product and the Kd (JNK1) was 11.8 µM.
